Test results reported in the supplement of paper PMC8671470.

How the values were obtained:
Details in all cases: 72 h
BV-173 = tested on: BV-173
Outline: (§1)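 The IC50 was derived from log-logistic dose–response fitting. Each of fifteen myeloid leukaemia cell lines, seeded in RPMI 1640 within its linear growth range, was exposed in 384-well plates to five tenfold doses (1 to 10,000 nM) in duplicate for 72 h at 37 °C and 5% CO2. Luminescent ATP viability readings were normalised to vehicle and to a positive control at 10 µM before four-parameter curve fitting.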

HEL = tested on: HEL
Outline: as §1

HL-60 = tested on: HL-60
Outline: as §1

K-562 = tested on: K-562
Outline: as §1

KCL-22 = tested on: KCL-22
Outline: as §1

KG-1 = tested on: KG-1
Outline: as §1

KU-812 = tested on: KU-812
Outline: as §1

LAMA-84 = tested on: LAMA-84
Outline: as §1

ML-2 = tested on: ML-2
Outline: as §1

MOLM-13 = tested on: MOLM-13
Outline: as §1

Mono-Mac-6 = tested on: Mono-Mac-6
Outline: as §1

NOMO-1 = tested on: NOMO-1
Outline: as §1

SHI-1 = tested on: SHI-1
Outline: as §1

THP-1 = tested on: THP-1
Outline: as §1

Which “IC50 (cell viability)” value (BV-173) does the source give for `COc1ccc2c(C(=S)N(C)CC(=O)O)cccc2c1C(F)(F)F` [Tolrestat] here?
The value was greater than 10 µM.

And the “IC50 (cell viability)” value (HEL)?
The value was greater than 10 µM.

What about the “IC50 (cell viability)” value (HL-60) of the same molecule?
Its value is greater than 10 µM.

What about the “IC50 (cell viability)” value (K-562) of the same molecule?
Its value is greater than 10 µM.

What about the “IC50 (cell viability)” value (KCL-22) of the same molecule?
Its value is greater than 10 µM.

What about the “IC50 (cell viability)” value (KG-1) of the same molecule?
Its value is greater than 10 µM.

And the “IC50 (cell viability)” value (KU-812)?
Its value is greater than 10 µM.

What about the “IC50 (cell viability)” value (LAMA-84) of the same molecule?
The value was greater than 10 µM.

And the “IC50 (cell viability)” value (ML-2)?
The value was greater than 10 µM.

What about the “IC50 (cell viability)” value (MOLM-13) of the same molecule?
Its value is greater than 10 µM.

What about the “IC50 (cell viability)” value (Mono-Mac-6) of the same molecule?
Its value is greater than 10 µM.

What about the “IC50 (cell viability)” value (NOMO-1) of the same molecule?
Its value is greater than 10 µM.

And the “IC50 (cell viability)” value (SHI-1)?
Its value is greater than 10 µM.

And the “IC50 (cell viability)” value (THP-1)?
The value was greater than 10 µM.

Which “IC50 (cell viability)” value (BV-173) does the source give for `CCCCC/C=C\C/C=C\C/C=C\C/C=C\CCCCN1C(=O)C=CC1=O` [N-Arachidonylmaleimide] here?
Its value is greater than 10 µM.

And the “IC50 (cell viability)” value (HEL)?
Its value is greater than 10 µM.

What about the “IC50 (cell viability)” value (HL-60) of the same molecule?
The value was greater than 10 µM.

What about the “IC50 (cell viability)” value (K-562) of the same molecule?
The value was greater than 10 µM.

And the “IC50 (cell viability)” value (KCL-22)?
Its value is greater than 10 µM.

And the “IC50 (cell viability)” value (KG-1)?
Its value is greater than 10 µM.

And the “IC50 (cell viability)” value (KU-812)?
The value was greater than 10 µM.

What about the “IC50 (cell viability)” value (LAMA-84) of the same molecule?
Its value is greater than 10 µM.

And the “IC50 (cell viability)” value (ML-2)?
Its value is greater than 10 µM.

What about the “IC50 (cell viability)” value (MOLM-13) of the same molecule?
The value was greater than 10 µM.

And the “IC50 (cell viability)” value (Mono-Mac-6)?
Its value is greater than 10 µM.

What about the “IC50 (cell viability)” value (NOMO-1) of the same molecule?
Its value is greater than 10 µM.

What about the “IC50 (cell viability)” value (SHI-1) of the same molecule?
The value was greater than 10 µM.

What about the “IC50 (cell viability)” value (THP-1) of the same molecule?
The value was greater than 10 µM.

Which “IC50 (cell viability)” value (BV-173) does the source give for `CC1(C)[C@@H](O[C@H]2O[C@H](C(=O)O)[C@@H](O)[C@H](O)[C@H]2O[C@@H]2O[C@H](C(=O)O)[C@@H](O)[C@H](O)[C@H]2O)CC[C@]2(C)[C@H]3C(=O)C=C4[C@@H]5C[C@@](C)(C(=O)O)CC[C@]5(C)CC[C@@]4(C)[C@]3(C)CC[C@@H]12` [Glycyrrhizin] here?
Its value is greater than 10 µM.

What about the “IC50 (cell viability)” value (HEL) of the same molecule?
Its value is greater than 10 µM.

And the “IC50 (cell viability)” value (HL-60)?
The value was greater than 10 µM.

And the “IC50 (cell viability)” value (K-562)?
Its value is greater than 10 µM.

What about the “IC50 (cell viability)” value (KCL-22) of the same molecule?
The value was greater than 10 µM.

What about the “IC50 (cell viability)” value (KG-1) of the same molecule?
The value was greater than 10 µM.

And the “IC50 (cell viability)” value (KU-812)?
Its value is greater than 10 µM.

And the “IC50 (cell viability)” value (LAMA-84)?
Its value is greater than 10 µM.

And the “IC50 (cell viability)” value (ML-2)?
The value was greater than 10 µM.

What about the “IC50 (cell viability)” value (MOLM-13) of the same molecule?
Its value is greater than 10 µM.

And the “IC50 (cell viability)” value (Mono-Mac-6)?
The value was greater than 10 µM.

And the “IC50 (cell viability)” value (NOMO-1)?
Its value is greater than 10 µM.

What about the “IC50 (cell viability)” value (SHI-1) of the same molecule?
The value was greater than 10 µM.

And the “IC50 (cell viability)” value (THP-1)?
Its value is greater than 10 µM.

For `CC(C)c1cc2c(c(O)c1O)[C@@]1(C(=O)O)CCCC(C)(C)[C@@H]1CC2` [Carnosic acid], which “IC50 (cell viability)” value (BV-173) is on record?
The value was 5.01 µM.

What about the “IC50 (cell viability)” value (HEL) of the same molecule?
The value was greater than 10 µM.

And the “IC50 (cell viability)” value (HL-60)?
The value was greater than 10 µM.

What about the “IC50 (cell viability)” value (K-562) of the same molecule?
The value was greater than 10 µM.

What about the “IC50 (cell viability)” value (KCL-22) of the same molecule?
Its value is greater than 10 µM.

And the “IC50 (cell viability)” value (KG-1)?
Its value is greater than 10 µM.

What about the “IC50 (cell viability)” value (KU-812) of the same molecule?
Its value is greater than 10 µM.

And the “IC50 (cell viability)” value (LAMA-84)?
Its value is greater than 10 µM.

And the “IC50 (cell viability)” value (ML-2)?
Its value is greater than 10 µM.

And the “IC50 (cell viability)” value (MOLM-13)?
Its value is greater than 10 µM.

What about the “IC50 (cell viability)” value (Mono-Mac-6) of the same molecule?
Its value is greater than 10 µM.

What about the “IC50 (cell viability)” value (NOMO-1) of the same molecule?
The value was greater than 10 µM.

And the “IC50 (cell viability)” value (SHI-1)?
Its value is greater than 10 µM.

And the “IC50 (cell viability)” value (THP-1)?
Its value is greater than 10 µM.

Which results are given for `O=C(O)c1cc(N=Nc2ccc(S(=O)(=O)Nc3ccccn3)cc2)ccc1O` [Sulfasalazine]?
IC50 (cell viability) (BV-173): > 10 µM; IC50 (cell viability) (HEL): > 10 µM; IC50 (cell viability) (HL-60): > 10 µM; IC50 (cell viability) (K-562): > 10 µM; IC50 (cell viability) (KCL-22): > 10 µM; IC50 (cell viability) (KG-1): > 10 µM; IC50 (cell viability) (KU-812): > 10 µM; IC50 (cell viability) (LAMA-84): > 10 µM; IC50 (cell viability) (ML-2): > 10 µM; IC50 (cell viability) (MOLM-13): > 10 µM; IC50 (cell viability) (Mono-Mac-6): > 10 µM; IC50 (cell viability) (NOMO-1): > 10 µM; IC50 (cell viability) (SHI-1): > 10 µM; IC50 (cell viability) (THP-1): > 10 µM

`O=c1oc2c(O)c(O)cc3c(=O)oc4c(O)c(O)cc1c4c23` [Benzoaric Acid] was tested. Which “IC50 (cell viability)” value (BV-173) did it give?
Its value is greater than 10 µM.

And the “IC50 (cell viability)” value (HEL)?
Its value is greater than 10 µM.

And the “IC50 (cell viability)” value (HL-60)?
The value was greater than 10 µM.

What about the “IC50 (cell viability)” value (K-562) of the same molecule?
The value was greater than 10 µM.

And the “IC50 (cell viability)” value (KCL-22)?
The value was greater than 10 µM.

And the “IC50 (cell viability)” value (KG-1)?
Its value is greater than 10 µM.

What about the “IC50 (cell viability)” value (KU-812) of the same molecule?
The value was greater than 10 µM.

What about the “IC50 (cell viability)” value (LAMA-84) of the same molecule?
The value was greater than 10 µM.

What about the “IC50 (cell viability)” value (ML-2) of the same molecule?
Its value is greater than 10 µM.

What about the “IC50 (cell viability)” value (MOLM-13) of the same molecule?
Its value is greater than 10 µM.

What about the “IC50 (cell viability)” value (Mono-Mac-6) of the same molecule?
The value was greater than 10 µM.

And the “IC50 (cell viability)” value (NOMO-1)?
Its value is greater than 10 µM.

And the “IC50 (cell viability)” value (SHI-1)?
The value was greater than 10 µM.

And the “IC50 (cell viability)” value (THP-1)?
The value was greater than 10 µM.

Which results are given for `Cc1ccccc1C(C(=O)NC1CCCCC1)N(C(=O)Cn1ccnc1C)c1cccc(F)c1` (stereo unspecified) [AGI-5198]?
IC50 (cell viability) (BV-173): > 10 µM; IC50 (cell viability) (HEL): > 10 µM; IC50 (cell viability) (HL-60): > 10 µM; IC50 (cell viability) (K-562): > 10 µM; IC50 (cell viability) (KCL-22): > 10 µM; IC50 (cell viability) (KG-1): > 10 µM; IC50 (cell viability) (KU-812): > 10 µM; IC50 (cell viability) (LAMA-84): > 10 µM; IC50 (cell viability) (ML-2): > 10 µM; IC50 (cell viability) (MOLM-13): > 10 µM; IC50 (cell viability) (Mono-Mac-6): > 10 µM; IC50 (cell viability) (NOMO-1): > 10 µM; IC50 (cell viability) (SHI-1): > 10 µM; IC50 (cell viability) (THP-1): > 10 µM

For `O=C(NCCCCCCNC(=O)ONC1=CCCCC1)ONC1=CCCCC1`, which “IC50 (cell viability)” value (BV-173) is on record?
The value was greater than 10 µM.

What about the “IC50 (cell viability)” value (HEL) of the same molecule?
The value was greater than 10 µM.

What about the “IC50 (cell viability)” value (HL-60) of the same molecule?
Its value is greater than 10 µM.

And the “IC50 (cell viability)” value (K-562)?
The value was greater than 10 µM.

And the “IC50 (cell viability)” value (KCL-22)?
The value was greater than 10 µM.

What about the “IC50 (cell viability)” value (KG-1) of the same molecule?
The value was greater than 10 µM.

And the “IC50 (cell viability)” value (KU-812)?
The value was greater than 10 µM.

And the “IC50 (cell viability)” value (LAMA-84)?
Its value is greater than 10 µM.

What about the “IC50 (cell viability)” value (ML-2) of the same molecule?
The value was greater than 10 µM.

What about the “IC50 (cell viability)” value (MOLM-13) of the same molecule?
Its value is greater than 10 µM.

What about the “IC50 (cell viability)” value (Mono-Mac-6) of the same molecule?
The value was greater than 10 µM.

What about the “IC50 (cell viability)” value (NOMO-1) of the same molecule?
The value was greater than 10 µM.

What about the “IC50 (cell viability)” value (SHI-1) of the same molecule?
The value was greater than 10 µM.

What about the “IC50 (cell viability)” value (THP-1) of the same molecule?
The value was greater than 10 µM.

For `O=C(O)C(=O)CBr` [3-bromopyruvic acid], which “IC50 (cell viability)” value (BV-173) is on record?
Its value is greater than 10 µM.

And the “IC50 (cell viability)” value (HEL)?
The value was greater than 10 µM.

And the “IC50 (cell viability)” value (HL-60)?
The value was greater than 10 µM.

And the “IC50 (cell viability)” value (K-562)?
Its value is greater than 10 µM.

And the “IC50 (cell viability)” value (KCL-22)?
The value was greater than 10 µM.

What about the “IC50 (cell viability)” value (KG-1) of the same molecule?
The value was greater than 10 µM.

What about the “IC50 (cell viability)” value (KU-812) of the same molecule?
Its value is greater than 10 µM.

What about the “IC50 (cell viability)” value (LAMA-84) of the same molecule?
Its value is greater than 10 µM.

What about the “IC50 (cell viability)” value (ML-2) of the same molecule?
Its value is greater than 10 µM.

And the “IC50 (cell viability)” value (MOLM-13)?
The value was greater than 10 µM.

And the “IC50 (cell viability)” value (Mono-Mac-6)?
The value was greater than 10 µM.

And the “IC50 (cell viability)” value (NOMO-1)?
The value was greater than 10 µM.

What about the “IC50 (cell viability)” value (SHI-1) of the same molecule?
Its value is greater than 10 µM.

What about the “IC50 (cell viability)” value (THP-1) of the same molecule?
Its value is greater than 10 µM.
